Results on 11 compounds are retold here after ChEMBL document CHEMBL1201862, “PubChem BioAssay data set” (2004).

Among the test systems are 786-0; A498; A549; BT-549; COLO 205; HCT-15; HL-60; HOP-92; KM12; NCI-H460; OVCAR-3; OVCAR-4; OVCAR-5; SF-268; SF-539; SK-MEL-5; SNB-19; UO-31; NCI-H226; OVCAR-8.
Holding throughout (assay): NCI-60 cell line screen, 48 h

Molecules are shown by their SMILES.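 Protocol summary: plate cells (96-well), add compound at 5 concentrations, incubate 48 h, interpolate endpoints linearly. GI50 marks 50% less growth.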 Active and inactive are the calls of the source. Cut-off read from the data, not from the text of the source: active = GI50 up to about 1.1 µM and inactive = higher.

On to `OCC1OC(NC(=S)NCSCCC(F)(F)C(F)(F)C(F)(F)C(F)(F)C(F)(F)C(F)(F)F)C(O)C(O)C1O` (centres undefined), for which the GI50 is 45.8 µM (inactive) in the assay on 786-0; 1.77 µM (inactive) in the assay with A498; 58.1 µM (inactive) in the assay on A549; > 100 µM (inactive) with BT-549; 77.4 µM (inactive) in the assay on COLO 205; 72.6 µM in the assay with HCT-15. Further, the GI50 is 49.4 µM (inactive) in the assay with HL-60; 22.7 µM (inactive) in the assay with HOP-92; 38.7 µM (inactive) in the assay with KM12; 34 µM (inactive) in the assay on NCI-H460; 86.9 µM (inactive) with OVCAR-3; > 100 µM (inactive) in the assay with OVCAR-4. Also, the GI50 in the assay on OVCAR-5 is 56.1 µM (inactive); in the assay on SF-268 it was 15.2 µM (inactive); in the assay on SF-539 it was 16.6 µM (inactive); in the assay on SK-MEL-5, > 10 µM (inactive); in the assay on SNB-19, 36.6 µM (inactive); with UO-31 it was > 100 µM (inactive).
As to `CC(C)NC(=O)OCC[S+]([O-])c1c(Cl)c(Cl)nn1C` (centres undefined), the GI50 was 24.9 µM (inactive) in the assay with 786-0; > 100 µM (inactive) in the assay on A498; > 100 µM (inactive) with A549; > 10 µM (inactive) in the assay with BT-549; 21.2 µM (inactive) in the assay on COLO 205; 20 µM with HCT-15. In addition, the GI50 in the assay on HL-60 is 47.5 µM (inactive); in the assay with KM12, > 100 µM (inactive); in the assay with NCI-H226, > 100 µM (inactive); in the assay with NCI-H460, > 100 µM (inactive); with OVCAR-3 it was 40.2 µM (inactive); with OVCAR-4, 49.8 µM (inactive). Also, the GI50 was 49 µM (inactive) with OVCAR-5; > 10 µM (inactive) with OVCAR-8; > 100 µM (inactive) in the assay on SF-268; > 100 µM (inactive) with SF-539; 40.9 µM (inactive) in the assay on SK-MEL-5; > 100 µM (inactive) with SNB-19. Further, the GI50 in the assay on UO-31 was > 100 µM (inactive).
For `CC(=O)OCC1OC(N2C(=O)/C(=C\c3ccc(Cl)cc3)C(N)=Nc3ccccc32)C(OC(C)=O)C(OC(C)=O)C1OC(C)=O` (centres undefined), the GI50 in the assay with 786-0 is 17.7 µM (inactive); in the assay with A498, 44.6 µM (inactive); in the assay with A549, 27.8 µM (inactive); with BT-549 it was 27.9 µM (inactive); with COLO 205, 12.1 µM (inactive); in the assay on HCT-15, 23 µM. Moreover, the GI50 with HL-60 is 33 µM (inactive); in the assay on HOP-92 it was 17.2 µM (inactive); with KM12, 14.9 µM (inactive); in the assay with NCI-H460 it was 28.4 µM (inactive); in the assay with OVCAR-3 it was 15.4 µM (inactive); with OVCAR-4, 20.4 µM (inactive). For the same compound, the GI50 with OVCAR-5 is 33.4 µM (inactive); in the assay on OVCAR-8, 13.8 µM (inactive); with SF-268, 18.2 µM (inactive); in the assay with SF-539, 10.1 µM (inactive); with SK-MEL-5, 12.7 µM (inactive); in the assay on SNB-19 it was 37.8 µM (inactive). Also, in the assay with UO-31, the GI50 is 20.7 µM (inactive).
As to `CCOC(=O)c1ccc(Nc2nc3ccccc3n3cccc23)cc1`, the GI50 with 786-0 was 26.8 µM (inactive); with A498, 46 µM (inactive); in the assay with A549 it was 86.5 µM (inactive); in the assay with BT-549 it was > 100 µM (inactive); with COLO 205 it was > 100 µM (inactive); in the assay on HCT-15 it was 21.8 µM. Moreover, the GI50 in the assay on HL-60 is < 0.01 µM (active); in the assay with HOP-92, 52.7 µM (inactive); with KM12 it was 28.1 µM (inactive); with NCI-H460, 84.7 µM (inactive); with OVCAR-3 it was 70 µM (inactive); in the assay on OVCAR-5 it was > 100 µM (inactive). In addition, the GI50 in the assay with OVCAR-8 is 47.8 µM (inactive); in the assay on SF-268, 35.7 µM (inactive); in the assay on SF-539, 35.2 µM (inactive); in the assay with SK-MEL-5 it was 66.8 µM (inactive); in the assay with SNB-19, 52.5 µM (inactive); in the assay with UO-31, > 100 µM (inactive).
`CCC(C)(O)c1cnc(CC(C)C)c(=O)n1O` (centres undefined): the GI50 in the assay on 786-0 is 57.7 µM (inactive); in the assay with A498, > 100 µM (inactive); in the assay on A549 it was 43.9 µM (inactive); with BT-549, > 100 µM (inactive); with COLO 205, 54.7 µM (inactive); in the assay with HCT-15 it was 38 µM. Besides, the GI50 is 85.9 µM (inactive) in the assay on HOP-92; 37.7 µM (inactive) in the assay with KM12; 28.1 µM (inactive) in the assay with NCI-H460; 33.8 µM (inactive) in the assay on OVCAR-3; 74.3 µM (inactive) with OVCAR-4; 0.597 µM (active) with OVCAR-5. The GI50 in the assay on OVCAR-8 is 34 µM (inactive); in the assay with SF-268, 36.8 µM (inactive); with SK-MEL-5 it was 88.1 µM (inactive); in the assay with SNB-19, 55.8 µM (inactive); in the assay on UO-31, 40.1 µM (inactive).
On to `COc1ccc2c(C)cc(C)nc2n1`, for which the GI50 in the assay with 786-0 was > 100 µM (inactive); in the assay on A498 it was > 100 µM (inactive); in the assay with A549 it was > 100 µM (inactive); in the assay with BT-549, > 100 µM (inactive); with COLO 205, > 100 µM (inactive); with HCT-15 it was more than 100 µM. In addition, the GI50 with HL-60, with HOP-92, with KM12, in the assay on NCI-H460, with OVCAR-3 and in the assay on OVCAR-4 was > 100 µM (inactive) in each case. Moreover, the GI50 in the assay with OVCAR-5, in the assay on OVCAR-8, in the assay with SK-MEL-5, in the assay on SNB-19 and in the assay with UO-31 was > 100 µM (inactive) throughout.
`COc1cc(NCC2COc3c(ccc(OC)c3OC)C2=O)c([N+](=O)[O-])cc1OC` (centres undefined): the GI50 with 786-0 is 15.6 µM (inactive); in the assay on A498, > 100 µM (inactive); with A549, > 100 µM (inactive); in the assay on BT-549, > 10 µM (inactive); with COLO 205 it was 54.7 µM (inactive); in the assay on HCT-15, more than 100 µM. Further, the GI50 with HL-60 was 36.8 µM (inactive); in the assay with KM12, > 100 µM (inactive); in the assay with NCI-H226 it was > 100 µM (inactive); with NCI-H460, 35.2 µM (inactive); in the assay on OVCAR-3 it was > 100 µM (inactive); in the assay on OVCAR-4 it was 82.4 µM (inactive). Moreover, the GI50 with OVCAR-5 is > 100 µM (inactive); in the assay with OVCAR-8, > 100 µM (inactive); in the assay with SF-268 it was 67.3 µM (inactive); with SF-539, > 100 µM (inactive); with SK-MEL-5, 44.3 µM (inactive); in the assay with SNB-19 it was > 100 µM (inactive). Also, the GI50 with UO-31 was > 100 µM (inactive).
On to `Nc1n[nH]c2nc3ccc(C(F)(F)F)cc3nc12`, for which the GI50 with 786-0 was 21 µM (inactive); in the assay with A498 it was 33 µM (inactive); with A549, 30.5 µM (inactive); in the assay on BT-549, 23.1 µM (inactive); with COLO 205, 16 µM (inactive); in the assay with HCT-15, 23.1 µM. Further, the GI50 in the assay on HOP-92 is 25.1 µM (inactive); with KM12, 57.1 µM (inactive); in the assay on NCI-H460, 20.5 µM (inactive); in the assay with OVCAR-4, 42.6 µM (inactive); in the assay with OVCAR-5, 25.6 µM (inactive); with OVCAR-8, 19.8 µM (inactive). In addition, the GI50 in the assay with SF-268 is 33.7 µM (inactive); in the assay with SK-MEL-5 it was 48.9 µM (inactive); in the assay on SNB-19 it was 32.2 µM (inactive); in the assay with UO-31 it was 17.6 µM (inactive).
Consider `CC1(C)C[C@@H]2C1CCC1(C)CC2(O)CC[C@H]1O` (some centres undefined), for which the GI50 was > 100 µM (inactive) in the assay with 786-0; > 100 µM (inactive) with A549; > 100 µM (inactive) in the assay on BT-549; > 100 µM (inactive) with COLO 205; more than 100 µM in the assay with HCT-15; > 100 µM (inactive) with HL-60. Besides, the GI50 with HOP-92, in the assay with KM12, with NCI-H226, in the assay on NCI-H460, in the assay with OVCAR-3 and in the assay with OVCAR-4 was > 100 µM (inactive) throughout. Further, the GI50 in the assay with OVCAR-5, in the assay on OVCAR-8, in the assay with SF-268, in the assay with SK-MEL-5, in the assay on SNB-19 and with UO-31 was > 100 µM (inactive) each time.
As to `O=CNc1ncn[nH]1`, the GI50 in the assay with 786-0 was > 100 µM (inactive); with A498 it was > 100 µM (inactive); in the assay on A549, > 100 µM (inactive); in the assay on BT-549, > 100 µM (inactive); with COLO 205, > 100 µM (inactive); in the assay on HCT-15 it was more than 100 µM. The GI50 with HL-60, in the assay on KM12, in the assay with NCI-H226, in the assay on NCI-H460, in the assay with OVCAR-3 and in the assay on OVCAR-4 was > 100 µM (inactive) throughout. Moreover, the GI50 in the assay on OVCAR-5, with OVCAR-8, in the assay with SF-268, in the assay on SF-539, in the assay with SK-MEL-5 and with SNB-19 was > 100 µM (inactive) each time. The GI50 in the assay with UO-31 was > 100 µM (inactive).
As for `CN(C)CCCNC(=O)c1cc(NC(=O)c2cc(NC(=O)CCCn3c4ccccc4c4ccccc43)cn2C)cn1C`, the GI50 was 13.5 µM (inactive) with 786-0; 19.3 µM (inactive) in the assay on A498; 17.5 µM (inactive) in the assay on A549; 15 µM (inactive) with BT-549; 2.15 µM (inactive) in the assay with COLO 205; 28.1 µM in the assay with HCT-15. In addition, the GI50 in the assay on HL-60 was 11.6 µM (inactive); in the assay with HOP-92, 14.7 µM (inactive); in the assay on KM12 it was 6.28 µM (inactive); with NCI-H460, 10.1 µM (inactive); in the assay with OVCAR-3, 13.4 µM (inactive); in the assay on OVCAR-4 it was 15.5 µM (inactive). Also, the GI50 in the assay on OVCAR-5 was 20.1 µM (inactive); in the assay with OVCAR-8, 22.8 µM (inactive); in the assay with SF-268, 13.5 µM (inactive); in the assay on SF-539, 20.4 µM (inactive); in the assay with SK-MEL-5 it was 5.81 µM (inactive); with SNB-19, 10.5 µM (inactive). Also, the GI50 in the assay on UO-31 is 25.6 µM (inactive).
